The values that follow come from US7803844B2, “Composition for preventing and/or treating bone disease, physiologically functional or health food containing thereof, and pharmaceutical containing thereof as active ingredients” (Erina Co. Inc., priority 2004, dated 2010).

In assay [1] the test system is MφRAW264 cells. Description: Inhibition assay I of the early phase differentiation of osteoclast (TRAP activity). The class given is cell-based. The following applies: 3 days. An excerpt:
Macrophage RAW264 cell line (RIKEN. cell No. CB0535, herein below, referred to as “MφRAW264”), which may differentiate to osteoclast-like cells, was used in the inhibition assay of the early phase differentiation of osteoclast. α-MEM (Invitrogen Co., Cat. No. 11900-024) including 10% of fetal bovine serum (Asahi Technoglass Co., (IWAKI), Cat. No. IWK-500) was used for cultivating MφRAW264. Osteoclast differentiation factor (ODF/RANKL) was purchased from Pepro Tech Inc., Cat. No. 310-01. Inhibition assay I of the early phase differentiation of osteoclast was performed for evaluating the inhibition level of the bone resorption in vitro, the differentiation assay of osteoclast from MφRAW264 cells in early stage. Results of the osteoclast assay were evaluated by determining tartrate resistant acid phosphatase (TRAP) activity, an early stage differentiation marker, and TRAP staining. By using these two indices, activities of flavones from MφRAW264 cells to osteoclast are quantitatively evaluated. MφRAW264 cells were suspended in a α-MEM supplemented 10% of fetal bovine serum (FBS), which is referred to as “10% FBS-MEM herein below”, and plated at 1×10^5 cells/10 mL in 100 mm φ dishes. Then, the dishes were incubated under the presence of 5% of CO2, at 37° C. for 3 days. After confirmed that the plated cells in the dishes became confluent, the incubation was finished. Subsequently, when the cells became confluent, they were treated by using 0.05% of trypsin and Hank's balanced salt solution containing 0.53 mM of EDTA (0.05% Trypsin-0.53 mM EDTA/HBSS (Invitrogen Co., Cat. No. 25300-054) to scrape them, and then suspended in 10% FBS-MEM to plate 0.4×10^4 cells/0.1 mL per each well of 96-well microplates. Then, the plates were incubated one day under the same condition as described above. Osteoclast differentiation factor (ODF/RANKL) was dissolved in 10% FBS-MEM to prepare 100 ng/mL of solution. Alternatively, a stock solution of honokiol was prepared at the concentration of 10 mM in methanol, and stored at −20° C. […] Equal volume of methanol was solely added into the control wells. Honokiol used in the following experiments were the solutions having each concentration prepared as described above. […] Equal volume of methanol without honokiol was added into the control wells. […] Incubation medium in each well of the 96-well microplate was discarded. […] After drying, tartrate resistant acid phosphatase activity was determined (hereinafter, it is referred to as “TRAP assay”), and staining of cells in the well was performed. […] Thirty minutes later, the reaction was terminated by adding 0.1 mL of 0.1 M NaOH, and released p-nitrophenol was determined by the spectrophotometer (Dainippon Pharmaceutical Co. Ltd.) at wave length 405 nm. […]

The subject of assay [2] is MφRAW264 cells. Description: Actin ring formation assay I. The following applies: 20 μM, 1 day after actin ring formation, MφRAW264 with ODF/RANKL and PD98059. Type of assay: cell-based. As for the experimental part:
After that, 0.1 mL of the medium including 100 ng/mL of ODF/RANKL and 20 μM PD98059 was added, and further incubated under the same condition (final concentration of RANKL was 50 ng/mL, and that of PD98059 10 μM). In order to promote the differentiation to the activated osteoclast, two days after the addition of ODF/RANKL and PD98059, the medium was exchanged to that including 50 ng/mL of ODF/RANKL as described above; then the plate was incubated until the actin ring, the activated structure of osteoclast, formation was confirmed. After actin ring was formed, honokiol prepared as the same as that prepared in the example 1 was added, and cultured further one day. […] One day after when honokiol was added to culture, TRAP staining of the tartrate resistant acid phosphatase (TRAP) in each well, similarly o those performed.

In assay [3] the test system is MC3T3-E1 cells. The assay is described as follows: Osteoblast differentiation induction assay, ALP activity. The following applies: 3 to 30 μM, 7 days. Type of assay: cell-based, mice. Here is the method:
As an evaluation method for the effect against the differentiation of osteoblast, MC3T3-E1 cell osteoblast differentiation induction assay was used. In the assay, the activity of alkaline phosphatase (ALP), the early stage differentiation marker enzyme of osteoblast, was determined, and the staining utilizing the activity (ALP staining) was performed. Expression level of osteocalcin, which is the marker of the differentiated osteoblast, was determined by using the EIA kit described above. Furthermore, in order to know the cytotoxicity, the cell viability was determined by using MTT assay. MC3T3-E1 cells were plated into the wells of the 96-well microplate at the concentration of 4×10^3 cells/well, and incubated two days under the presence of 5% of CO2, at 37° C. until cells became confluent in the well. […] The medium was exchanged every 3 or 4 days. ALP activity was determined as follows. At first, MC3T3-E1 cells were cultured for 7 days under the same condition as described above; then the medium was removed, and washed by using PBS. After that cells were fixed by using methanol and the dish was dried. […] The reaction was terminated by adding 100 μL of 0.1 N NaOH, and released p-nitrophenol was determined by measuring absorbance at the wave length of 405 nm, by using the plate reader for obtaining ALP activity. […]

pIC50: −log10 of the molar value.

One may read the pIC50 as −log10 of the IC50, conventionally taken in molar units. In the case of `C=CCc1ccc(O)c(-c2ccc(O)c(CC=C)c2)c1` [honokiol], the “TRAP activity (control %)” value in assay [1] (MφRAW264 cells stimulated by 50 ng/mL ODF/RANKL, honokiol 3-30 μM, magnolol 20-60 μM) is “dose-dependently inhibited”. In assay [1] (Osteoclast, 72 h, MφRAW264 cells, RANKL 50 ng/mL, read-out: IC50, inhibition of MφRAW264 cells to osteoclast by RANKL), the pIC50 was 4.82. In addition, the “actin rings (activated structure of osteoclast)” value in assay [2] is listed as “destructed”. Besides, in assay [3], the ALP activity entry is recorded as “enhanced in dose dependent manner”.
